A value given as a limit tells only on which side of the number the result lay.

Series [1] deals with CML-AP with T315I mutation. Description: Phase I dose escalation and dose expansion clinical trial: efficacy in CML-AP subjects with T315I mutation. The class given is in vivo, humans. The source says:
This study is a single-arm, open-label, dose-escalation and dose-expansion Phase I clinical trial.
The dose-escalation phase of this trial consists of about 8 dose groups, with oral administration under fasting conditions. Subjects in all dose groups will receive a single dose on Day 1 (D1), followed by pharmacokinetic (PK) and tolerability observations. […] After entering the multiple-dose period, subjects in the first dose group will initially receive twice-daily (BID) dosing (if PK data from the single-dose period are available, the dosing frequency during the multiple-dose period may be adjusted based on the PK data). The dosing frequency for subjects in subsequent dose groups after entering the multiple-dose period will be determined based on available PK and tolerability data. Throughout the trial, dosing frequency for all subjects may be adjusted based on continuously updated safety and PK data.
A continuous reassessment method (CRM) based on the principle of the escalation with overdose control (EWOC) design will be used to recommend the next specific dose for each dose escalation, thereby completing dose escalation and determining the maximum tolerated dose (MTD). If both the investigator and sponsor believe that higher dose groups may offer better efficacy and manageable safety, the EWOC-based CRM method may be used to explore higher doses. All enrolled subjects will receive long-term treatment with the test drug and undergo evaluations for safety, tolerability, and preliminary efficacy.
After obtaining certain research data from the dose-escalation phase, the investigator may comprehensively consider safety, efficacy, and other information to decide whether to enroll additional subjects at the MTD and/or lower dose levels to determine the recommended Phase II dose (RP2D). Two to four suitable dosing regimens will be selected for expansion in the target population (including subjects enrolled at the target dose levels during the escalation phase).
A total of 8 dose groups were established: 10 mg bid, 20 mg bid, 40 mg bid, 80 mg bid, 40 mg qd, 80 mg qd, 160 mg qd, and 240 mg qd.
The dose expansion phase was conducted in the following 3 cohorts: • Cohort 1: Subjects with chronic phase (CP) chronic myeloid leukemia (CML) who had previously received at least ≥2 different TKIs and were T315I-negative. A total of 3 dose groups were established: 40 mg qd, 80 mg qd, and 240 mg qd; • Cohort 2: Subjects with chronic phase (CP) chronic myeloid leukemia (CML) who have previously received ≥1 TKI and were T315I-positive. A total of 2 dose groups were established: 40 mg qd and 240 mg qd; • Cohort 3: Subjects with accelerated phase (AP) chronic myeloid leukemia (CML) who have previously received ≥1 TKI, regardless of T315I positivity. A total of 1 dose group was established: 240 mg qd.

In series [2] the test system is K562-luc human leukemia cells. Description: Pharmacodynamic study in animal model inoculated via the carotid artery with K562-luc cells (brain metastasis model). The settings on record: 50 mg/kg p.o. qd.
Procedure: K562-luc tumor cells were cultured in IMDM medium containing 10% fetal bovine serum and 1500 ng/mL puromycin in an incubator at 37°C with 5% CO2. The medium was replaced every 2 to 3 days. The cells were subcultured when the confluence reaches 80% - 90%. Tumor cells in the logarithmic growth phase were used for in vivo tumor inoculation.
Test animals: NCG mice, 6-8 weeks old, female, all handled according to SOP. The animals were housed in an SPF facility accredited by AAALAC (Association for Assessment and Accreditation of Laboratory Animal Care), in a constant-temperature and constant-humidity laminar flow clean room, using individually ventilated cages (IVC). […]
The mouse was placed supine on a neck surgery board with the upper incisors hooked and both forelimbs abducted and fixed. […] Tumor growth was monitored once weekly using an in vivo imaging system. […]
For routine monitoring, not only tumor growth but also behavioral changes of the animals were observed, including animal movement, food and water consumption (by cage-side observation), body weight changes, whether the eyes/hair were glossy, and any other abnormal effects. Any deaths and/or clinical signs of abnormalities were recorded. […]
Statistical analysis: Statistical analysis between groups was performed using SPSS 16.0 software. Mean and standard error were calculated for all measured parameters according to the experimental design. […]
Series [3] is described as follows: Phase I clinical trial: pharmacokinetics. The settings on record: CML patients, oral. The class given is in vivo, humans. The source says:
• 1) To preliminarily evaluate the pharmacokinetic characteristics of Compound A after multiple oral administrations; • 2) To preliminarily evaluate the antitumor effects of Compound A.
This study is a single-arm, open-label, dose-escalation and dose-expansion Phase I clinical trial. The trial plans to enroll patients with chronic myeloid leukemia (CML) who have developed resistance or intolerance after prior treatment with BCR-ABL1 tyrosine kinase inhibitor(s) (TKIs).
The dose-escalation phase of this trial consists of about 8 dose groups, with oral administration under fasting conditions. Subjects in all dose groups will receive a single dose on Day 1 (D1), followed by pharmacokinetic (PK) and tolerability observations. If no drug-related adverse events of Grade 3 or higher occur during the single-dose period, the subject will enter the multiple-dose period (i.e., the treatment period) after 3-5 days (for the first dose group, the multiple-dose period begins 5 days after the first dose [i.e., starting on Day 6]; for subsequent dose groups, the interval will be determined based on available tolerability and PK data). […] The dosing frequency for subjects in subsequent dose groups after entering the multiple-dose period will be determined based on available PK and tolerability data. […]

The mark [4] stands for this setting: CML-AP and T315I mutation, failed or intolerant to third-generation or later TKI therapy.
Setting [5] is: CML-AP and T315I mutation, failed or intolerant to third-generation or later TKI therapy, 12 evaluable.
Where [6] appears, read: CML-AP and T315I mutation, failed or intolerant to third-generation or later TKI therapy, Kaplan-Meier method.
Setting [7] is: CML-AP subjects with T315I mutation, as of June 2, 2024.

Take `O=C(Nc1ccc(OC(F)(F)Cl)cc1)c1cnc(N2CC[C@@H](F)C2)c(-c2cnccn2)c1` [Compound A, (R)-N-(4-(chlorodifluoromethoxy)phenyl)-6-(3-fluoropyrrolidin-1-yl)-5-(pyrazin-2-yl)nicotinamide]: in series [1] (setting [4]), the “median EFS” value worked out at 5.55 months; the “median PFS” value is on record as “not reached”; the “median duration of MaHR response” value came to 11.93 months; the “median time to achieve CCyR” value was 4.19 (2.76, 5.62) months. In series [1] (setting [4]), the “median time to achieve MCyR” value was 2.69 (2.69, 2.76) months. In series [1] (setting [5]), this compound had a CCyR of 16.7%, an MCyR of 25.0% and an MMR of 8.3%. In series [1] (CML-AP and T315I mutation, failed or intolerant to third-generation or later TKI therapy, 13 evaluable), the MaHR is reported as 76.9%. In addition, in series [1] (setting [6]), the “12-month EFS rate” value is reported as 18.0% and the “12-month PFS rate” value is 75.8%. In series [1] (setting [7]), the “18-month cumulative incidence rate of CCyR” value is listed as 30%, the “18-month cumulative incidence rate of MCyR” value is given as 36% and the “18-month cumulative incidence rate of MMR” value is listed as 15%. Moreover, in series [2] (day 28 after dosing, versus control group, Fig. 8), the “BLI signal intensity of brain tumors (fluorescent signal)” value is on record as “significantly inhibited”. Moreover, the body weight loss entry in series [2] (during the treatment period) is reported as “did not show significant body weight loss”. For the same compound, the exposure versus dose result in series [3] was “dose-proportional”. The half-life in series [3] (human, in vivo, read-out: terminal half-life) is above 100 h.

These data come from EP4803080A1, “METHOD FOR TREATING LEUKEMIA” (Shenzhen TargetRx Co., Ltd., priority 2023, dated 2025).
